Assay results: US20230095530A1, “COMPOUND USED AS RET KINASE INHIBITOR AND APPLICATION THEREOF” (TYK Medicines, Inc., priority 2019, published 2023)
Read-outs that look alike come from different tables or passages of the source.

Experiments:
[1] = tested on: tumor patients with RET fusion and mutation; details: phase I, cited from earlier work
wild-type RET kinase = wild-type RET kinase (Homo sapiens, UniProt P07949); test: Kinase activity assay against wild-type RET at ATP Km (33P-ATP, filter-binding); assay type: biochemical; details: ATP Km concentration, 10 concentrations
Chain of wild-type RET kinase (P07949 29-1114): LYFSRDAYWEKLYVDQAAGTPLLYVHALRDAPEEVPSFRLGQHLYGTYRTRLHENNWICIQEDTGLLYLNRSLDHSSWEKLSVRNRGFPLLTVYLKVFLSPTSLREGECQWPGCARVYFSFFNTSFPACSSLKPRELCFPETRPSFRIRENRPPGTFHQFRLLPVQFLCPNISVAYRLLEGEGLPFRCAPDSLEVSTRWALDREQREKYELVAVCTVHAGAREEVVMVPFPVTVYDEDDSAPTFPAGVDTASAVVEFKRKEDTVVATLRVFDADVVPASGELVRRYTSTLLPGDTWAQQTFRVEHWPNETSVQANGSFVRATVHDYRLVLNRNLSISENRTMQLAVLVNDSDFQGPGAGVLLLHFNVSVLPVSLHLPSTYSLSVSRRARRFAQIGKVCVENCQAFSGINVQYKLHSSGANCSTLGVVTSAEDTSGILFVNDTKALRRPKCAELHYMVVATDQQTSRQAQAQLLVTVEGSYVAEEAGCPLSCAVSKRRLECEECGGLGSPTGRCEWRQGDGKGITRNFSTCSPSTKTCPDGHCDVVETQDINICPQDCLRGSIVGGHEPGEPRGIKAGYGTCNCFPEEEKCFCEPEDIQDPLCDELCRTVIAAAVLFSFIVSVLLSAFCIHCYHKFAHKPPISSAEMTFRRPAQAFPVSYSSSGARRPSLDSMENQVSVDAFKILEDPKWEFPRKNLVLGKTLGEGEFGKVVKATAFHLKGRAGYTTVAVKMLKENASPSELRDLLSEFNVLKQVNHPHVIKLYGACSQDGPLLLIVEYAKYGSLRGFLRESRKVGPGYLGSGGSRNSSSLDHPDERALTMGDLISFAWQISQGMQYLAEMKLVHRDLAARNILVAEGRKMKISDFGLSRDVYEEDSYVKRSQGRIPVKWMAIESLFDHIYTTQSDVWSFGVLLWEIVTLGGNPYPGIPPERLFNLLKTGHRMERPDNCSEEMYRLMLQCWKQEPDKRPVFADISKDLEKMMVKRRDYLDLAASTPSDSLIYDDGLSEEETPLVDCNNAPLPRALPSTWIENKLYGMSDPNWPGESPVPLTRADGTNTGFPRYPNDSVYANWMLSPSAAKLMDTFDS
Procedure: […]. The biological activity screening of the compounds will be determined repeatedly at 10 concentrations.
Each sample was prepared into a solution with a concentration of 10 mM.
The test compound was dissolved in 100% dimethyl sulfoxide to a specific concentration. Integra Viaflo Assist was used to assist DMSO for (continuous) dilution.
Adding kinase into the newly prepared basic reaction buffer:
Adding any desired cofactors to the substrate solution;
Adding wild-type RET kinase into the substrate solution and gently mixing;
Using Acoustic technology (Echo 550; nanoliter range) to feed the compounds in 100% of dimethyl sulfoxide into the kinase reaction mixture and incubated at room temperature for 20 minutes.
Adding 33P-ATP (specific activity 10 Ci/1) into the reaction mixture to start the reaction.
Incubated at room temperature for 2 hours;
Radioactivity was detected by filter-binding method;
Kinase activity data was expressed as the percentage of remaining kinase activity in the test sample compared to the vehicle (dimethyl sulfoxide) reaction. Prism (GRAPHPAD software) was used to obtain IC50 value and curve-fitting.

For `CO[C@]1(C(=O)N[C@@H](C)c2ccc(-n3cc(F)cn3)nc2)CC[C@H](c2nc(C)cc(Nc3cc(C)[nH]n3)n2)CC1` [BLU-667], the ORR ([1]; patients with medullary thyroid carcinoma) is given as 40%, the ORR ([1]; patients with non-small cell lung cancer) is given as 50% and the “overall remission rate (ORR)” value ([1]; tumor patients with RET fusion and mutation) is given as 45%.

Molecule `COc1ccc(CN2CCC(n3cc(-c4cc(-c5cnn(C)c5)cn5ncc(C#N)c45)cn3)C2)cn1` (stereo not drawn) [Compound C1] has an IC50 (wild-type RET kinase) of 1.56 nM.

In the case of `COc1ccc(CN2CCCC(n3cc(-c4cc(-c5cnn(C)c5)cn5ncc(C#N)c45)cn3)C2)cn1` (stereo not drawn) [Compound C2], the IC50 (wild-type RET kinase) is reported as 3.52 nM.

For `COc1ccc(CN2C3CC2CN(c2ccc(-c4cc(OCC(C)(C)O)cc5nccc(C#N)c45)cn2)C3)cn1` [Compound C3], the IC50 (wild-type RET kinase) was 226 nM.

`COc1ccc(CN2CCC(n3ccc(-c4cc(-c5cnn(C)c5)cn5ncc(C#N)c45)cc3=O)C2)cn1` (stereo not drawn) [Compound C5] showed an IC50 (wild-type RET kinase) of 40.7 nM.

With `COc1ccc(CN2CCCC(n3ccc(-c4cc(-c5cnn(C)c5)cn5ncc(C#N)c45)cc3=O)C2)cn1` (stereo not drawn) [Compound C7] the IC50 (wild-type RET kinase) was 27.3 nM.

`COc1ccc(CN2CCC(n3ccc(-c4cc(-c5cnn(C)c5)cn5ncc(C#N)c45)cc3=O)CC2)cn1` [Compound C8] showed an IC50 (wild-type RET kinase) of 58 nM.
